Experimental data: US20250388592A1 (REMYND N.V., priority 2022, published 2025)

Test system: M17_3TAU(P301L) cells
Test: TAU-induced cytotoxicity (LDH) in the neuroblastoma tauopathy model
Assay type: cell-based
Settings: Homo sapiens, 168 h, inhibition of TAU-induced toxicity, 7 days retinoic acid differentiation, LDH readout
Method in brief: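 Stably transfected BE-M17 cells expressing human TAU-P301L, seeded in serum-free detection medium, then differentiated with 2.5 μM RA (added in equal volume) for 7 days at 37° C/5% CO2 to induce TAU aggregation. Cytotoxicity = supernatant LDH increase over total LDH; EC50 from dose-dependent inhibition curves.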

SMILES | EC50 [µM]
Cc1ccc(CNC2CC3(C2)CC(Nc2nc(Cc4ccc(Cl)cc4)ns2)C3)c(C)c1 (stereo not shown) [Cpd B319, N-(3-(4-chlorobenzyl)-1,2,4-thiadiazol-5-yl)-N′-(2,4-dimethylbenzyl) spiro[3.3]heptane-2,6-diamine] | 0.0021
Clc1ccc(Cc2nsc(NC3CC4(CC(NCc5ccc6c(c5)OCO6)C4)C3)n2)cc1 (stereo not shown) [Cpd B320, N-(benzo[d][1,3]dioxol-5-ylmethyl)-N′-(3-(4-chlorobenzyl)-1,2,4-thiadiazol-5-yl) spiro[3.3]heptane-2,6-diamine] | 0.0014
Cc1ccc(CNC2CC3(C2)CC(Nc2nc(Cc4ccc(Cl)cc4)ns2)C3)cc1 (stereo not shown) [Cpd B321, N-(3-(4-chlorobenzyl)-1,2,4-thiadiazol-5-yl)-N′-(4-methylbenzyl) spiro[3.3]heptane-2,6-diamine] | 0.0086
FC(F)(F)c1ccccc1CNC1CC2(C1)CC(Nc1nc(Cc3ccc(Cl)cc3)ns1)C2 (stereo not shown) [Cpd B322, N-(3-(4-chlorobenzyl)-1,2,4-thiadiazol-5-yl)-N′-(2-(trifluoromethyl)benzyl) spiro[3.3]heptane-2,6-diamine] | 0.0028
Fc1cccc(CNC2CC3(C2)CC(Nc2nc(Cc4ccc(Cl)cc4)ns2)C3)c1 (stereo not shown) [Cpd B323, N-(3-(4-chlorobenzyl)-1,2,4-thiadiazol-5-yl)-N′-(3-fluorobenzyl)spiro[3.3]heptane-2,6-diamine] | 0.002
Cc1cccc(CNC2CC3(C2)CC(Nc2nc(Cc4ccc(Cl)cc4)ns2)C3)c1 (stereo not shown) [Cpd B324, N-(3-(4-chlorobenzyl)-1,2,4-thiadiazol-5-yl)-N′-(3-methylbenzyl) spiro[3.3]heptane-2,6-diamine] | 0.0026
FC(F)(F)c1cccc(CNC2CC3(C2)CC(Nc2nc(Cc4ccc(Cl)cc4)ns2)C3)c1 (stereo not shown) [Cpd B325, N-(3-(4-chlorobenzyl)-1,2,4-thiadiazol-5-yl)-N′-(3-(trifluoromethyl)benzyl) spiro[3.3]heptane-2,6-diamine] | 0.0362
CC(=O)Nc1ccc(CNC2CC3(C2)CC(Nc2nc(Cc4ccc(Cl)cc4)ns2)C3)cc1 (stereo not shown) [Cpd B326, N-(4-((6-(3-(4-chlorobenzyl)-1,2,4-thiadiazol-5-ylamino)spiro[3.3]heptan-2-ylamino)methyl)phenyl) acetamide] | 0.145
COc1ccc(OC)c(CNC2CC3(C2)CC(Nc2nc(Cc4ccc(Cl)cc4)ns2)C3)c1 (stereo not shown) [Cpd B327, N-(3-(4-chlorobenzyl)-1,2,4-thiadiazol-5-yl)-N′-(2,5-dimethoxybenzyl) spiro[3.3]heptane-2,6-diamine] | 0.0099
COc1ccccc1CCNC1CC2(C1)CC(Nc1nc(Cc3ccc(Cl)cc3)ns1)C2 (stereo not shown) [Cpd B328, N-(3-(4-chlorobenzyl)-1,2,4-thiadiazol-5-yl)-N′-(2-methoxyphenethyl) spiro[3.3]heptane-2,6-diamine] | 0.002
Fc1cc(F)cc(CNC2CC3(C2)CC(Nc2nc(Cc4ccc(Cl)cc4)ns2)C3)c1 (stereo not shown) [Cpd B329, N-(3-(4-chlorobenzyl)-1,2,4-thiadiazol-5-yl)-N′-(3,5-difluorobenzyl) spiro[3.3]heptane-2,6-diamine] | 0.0023
Clc1ccc(Cc2nsc(NC3CC4(CC(NCc5cccc6c5OCO6)C4)C3)n2)cc1 (stereo not shown) [Cpd B330, N-(benzo[d][1,3]dioxol-4-ylmethyl)-N′-(3-(4-chlorobenzyl)-1,2,4-thiadiazol-5-yl) spiro[3.3]heptane-2,6-diamine] | 0.008
CS(=O)(=O)c1ccc(CNC2CC3(C2)CC(Nc2nc(Cc4ccc(Cl)cc4)ns2)C3)cc1 (stereo not shown) [Cpd B331, N-(3-(4-chlorobenzyl)-1,2,4-thiadiazol-5-yl)-N′-(4-(methylsulfonyl)benzyl) spiro[3.3]heptane-2,6-diamine] | 0.0733
Clc1ccc(Cc2nsc(NC3CC4(CC(NCCc5cccc(Cl)c5)C4)C3)n2)cc1 (stereo not shown) [Cpd B332, N-(3-(4-chlorobenzyl)-1,2,4-thiadiazol-5-yl)-N′-(3-chlorophenethyl) spiro[3.3]heptane-2,6-diamine] | 0.002
COc1ccc(CCNC2CC3(C2)CC(Nc2nc(Cc4ccc(Cl)cc4)ns2)C3)cc1 (stereo not shown) [Cpd B333, N-(3-(4-chlorobenzyl)-1,2,4-thiadiazol-5-yl)-N′-(4-methoxyphenethyl) spiro[3.3]heptane-2,6-diamine] | 0.002
Clc1ccc(Cc2nsc(NC3CC4(CC(NCCc5ccccc5Cl)C4)C3)n2)cc1 (stereo not shown) [Cpd B334, N-(3-(4-chlorobenzyl)-1,2,4-thiadiazol-5-yl)-N′-(2-chlorophenethyl) spiro[3.3]heptane-2,6-diamine] | 0.002
COc1ccc(CCNC2CC3(C2)CC(Nc2nc(Cc4ccc(Cl)cc4)ns2)C3)cc1OC (stereo not shown) [Cpd B335, N-(3-(4-chlorobenzyl)-1,2,4-thiadiazol-5-yl)-N′-(3,4-dimethoxyphenethyl) spiro[3.3]heptane-2,6-diamine] | 0.003
FC(F)(F)c1cccc(CCNC2CC3(C2)CC(Nc2nc(Cc4ccc(Cl)cc4)ns2)C3)c1 (stereo not shown) [Cpd B336, N-(3-(4-chlorobenzyl)-1,2,4-thiadiazol-5-yl)-N′-(3-(trifluoromethyl)phenethyl) spiro[3.3]heptane-2,6-diamine] | 0.007
Cn1cc(CN2CC3(C2)CN(C(=O)NCc2ccc(F)cc2)C3)cn1 [Cpd B405] | 4.82
Cn1ccc(CN2CC3(C2)CN(C(=O)NCc2ccc(F)cc2)C3)n1 [Cpd B406] | 4.62
Cc1cccc(C(=O)N2CC3(CN(Cc4ncccc4C)C3)C2)c1 [Cpd B407] | 4.31
Cc1cccnc1CN1CC2(C1)CN(C(=O)CC13CC(C1)C3)C2 [Cpd B408] | 4

SMILES | EC50 [µM]
O=C(Cc1cccnc1)N1CC2(CN(Cc3ccc(F)cc3)C2)C1 [Cpd B409] | 3.73
CCn1cc(CN2CC3(C2)CN(C(=O)NCc2ccc(F)cc2)C3)cn1 [Cpd B410] | 3.32
Cc1nc(CN2CC3(C2)CN(C(=O)C(F)(F)c2ccc(F)cc2)C3)cs1 [Cpd B411] | 3.01
Cc1cccnc1CN1CC2(C1)CN(C(=O)c1cc3ccccc3o1)C2 [Cpd B412] | 2.85
Cc1c(CN2CC3(C2)CN(C(=O)NCc2ccc(F)cc2)C3)cnn1C [Cpd B413] | 2.77
O=C(Cc1ccccn1)N1CC2(CN(Cc3ccc(F)cc3)C2)C1 [Cpd B414] | 2.71
CCc1cc(CC(=O)N2CC3(CN(Cc4ccc(F)cc4)C3)C2)ccn1 [Cpd B415] | 2.41
COc1cccc(CC(=O)N2CC3(CN(Cc4ncccc4C)C3)C2)c1 [Cpd B416] | 2.22
Cc1ncc(CN2CC3(C2)CN(C(=O)NCc2ccc(F)cc2)C3)s1 [Cpd B417] | 1.69
Cc1nc(CN2CC3(C2)CN(C(=O)NCc2ccc(F)cc2)C3)cs1 [Cpd B418] | 1.33
COc1cccc(CN2CC3(C2)CN(C(=O)Cc2ccccn2)C3)c1 [Cpd B419] | 1.26
COc1cccc(CN2CC3(C2)CN(C(=O)Nc2cccc(OC)c2)C3)c1 [Cpd B420] | 1.21
Cc1ccc(CN2CC3(C2)CN(C(=O)NCc2ccc(F)cc2)C3)[nH]1 [Cpd B421] | 0.981
COc1cccc(CN2CC3(C2)CN(C(=O)NC2CC(F)(F)C2)C3)c1 [Cpd B422] | 0.978
O=C(Cc1ccccc1O)N1CC2(CN(Cc3ccc(F)cc3)C2)C1 [Cpd B423] | 0.972
Cc1nc(CN2CC3(C2)CN(C(=O)Cc2ccccc2F)C3)cs1 [Cpd B424] | 0.93
COc1cccc(CC(=O)N2CC3(CN(Cc4ccc(F)cc4)C3)C2)c1 [Cpd B425] | 0.854
Cc1nn(C)cc1CN1CC2(C1)CN(C(=O)NCc1ccc(F)cc1)C2 [Cpd B426] | 0.85
Cc1cccnc1CN1CC2(C1)CN(C(=O)c1cc3ccccc3s1)C2 [Cpd B427] | 0.846
COC(=O)c1ccc(CC(=O)N2CC3(CN(Cc4ccc(F)cc4)C3)C2)cc1 [Cpd B428] | 0.778
Cc1nc(CN2CC3(C2)CN(C(=O)OCc2ccc(Cl)cc2)C3)cs1 [Cpd B429] | 0.746
Cc1ccccc1CC(=O)N1CC2(CN(Cc3ncccc3C)C2)C1 [Cpd B430] | 0.691

SMILES | EC50 [µM]
COc1ncccc1CN1CC2(C1)CN(C(=O)NCc1ccc(F)cc1)C2 [Cpd B431] | 0.492
O=C(NCc1ccc(F)cc1)N1CC2(CN(Cc3cccnc3F)C2)C1 [Cpd B432] | 0.482
O=C(Cc1cccc(Cl)c1)N1CC2(CN(Cc3ccc(F)cc3)C2)C1 [Cpd B433] | 0.469
Cc1ccccc1CC(=O)N1CC2(CN(Cc3ccccc3C)C2)C1 [Cpd B434] | 0.396
Cc1cccnc1CN1CC2(C1)CN(C(=O)NCc1cccc(C(F)(F)F)c1)C2 [Cpd B435] | 0.39
Cc1cccnc1CN1CC2(C1)CN(C(=O)Cc1ccccc1F)C2 [Cpd B436] | 0.389
Cc1cccnc1CN1CC2(C1)CN(C(=O)CC1CCCC1)C2 [Cpd B437] | 0.354
Cn1ncc(Cl)c1CN1CC2(C1)CN(C(=O)CC1CCC(F)(F)CC1)C2 [Cpd B438] | 0.317
Cc1ccccc1CC(=O)N1CC2(CN(Cc3ccc(F)cc3)C2)C1 [Cpd B439] | 0.295
Cc1cnc(CN2CC3(C2)CN(C(=O)NCc2ccc(F)cc2)C3)s1 [Cpd B440] | 0.26
O=C(NC1CCC(F)(F)CC1)N1CC2(CN(Cc3ncccc3F)C2)C1 [Cpd B441] | 0.253
O=C(Cc1ccnc(Cl)c1)N1CC2(CN(Cc3ccc(F)cc3)C2)C1 [Cpd B442] | 0.2
Cc1cccnc1CN1CC2(C1)CN(C(=O)NCc1ccc(F)cc1)C2 [Cpd B443] | 0.171
Cn1cc(Cl)c(CN2CC3(C2)CN(C(=O)NCc2ccc(F)cc2)C3)n1 [Cpd B444] | 0.167
Cc1csc(CN2CC3(C2)CN(C(=O)CC2CCC(F)(F)CC2)C3)n1 [Cpd B445] | 0.157
Cn1cnc(CN2CC3(C2)CN(C(=O)OC2CCC(F)(F)CC2)C3)c1Cl [Cpd B446] | 0.15
Cn1cnc(CN2CC3(C2)CN(C(=O)NCC2CCC(F)(F)CC2)C3)c1Cl [Cpd B447] | 0.148
O=C(OCC1CCC(F)(F)CC1)N1CC2(CN(Cc3c(F)cccc3C(F)(F)F)C2)C1 [Cpd B448] | 0.12
Cc1cc(CN2CC3(C2)CN(C(=O)CC2CCC(F)(F)CC2)C3)n[nH]1 [Cpd B449] | 0.119
Cc1nc(CN2CC3(C2)CN(C(=O)NC2CCC(F)(F)CC2)C3)cs1 [Cpd B450] | 0.116
